In patent publication US20160159814A1, “GLYCINE TRANSPORTER INHIBITOR” (TAISHO PHARMACEUTICAL CO., LTD., priority 2013, published 2016):

The compounds below were run against T1, human type 1 glycine transporter (GlyT1) (Homo sapiens, UniProt P48067) (assay: Glycine uptake inhibition experiment ([3H] glycine uptake in T98G cells expressing GlyT1)). Conditions: not given.
T1 construct: T98G cells (glioma cells) expressing human type 1 glycine transporter (GlyT1) were used; endogenous in cells; host or cells: T98G cells (human glioma cells)
T1 sequence (P48067 1-706): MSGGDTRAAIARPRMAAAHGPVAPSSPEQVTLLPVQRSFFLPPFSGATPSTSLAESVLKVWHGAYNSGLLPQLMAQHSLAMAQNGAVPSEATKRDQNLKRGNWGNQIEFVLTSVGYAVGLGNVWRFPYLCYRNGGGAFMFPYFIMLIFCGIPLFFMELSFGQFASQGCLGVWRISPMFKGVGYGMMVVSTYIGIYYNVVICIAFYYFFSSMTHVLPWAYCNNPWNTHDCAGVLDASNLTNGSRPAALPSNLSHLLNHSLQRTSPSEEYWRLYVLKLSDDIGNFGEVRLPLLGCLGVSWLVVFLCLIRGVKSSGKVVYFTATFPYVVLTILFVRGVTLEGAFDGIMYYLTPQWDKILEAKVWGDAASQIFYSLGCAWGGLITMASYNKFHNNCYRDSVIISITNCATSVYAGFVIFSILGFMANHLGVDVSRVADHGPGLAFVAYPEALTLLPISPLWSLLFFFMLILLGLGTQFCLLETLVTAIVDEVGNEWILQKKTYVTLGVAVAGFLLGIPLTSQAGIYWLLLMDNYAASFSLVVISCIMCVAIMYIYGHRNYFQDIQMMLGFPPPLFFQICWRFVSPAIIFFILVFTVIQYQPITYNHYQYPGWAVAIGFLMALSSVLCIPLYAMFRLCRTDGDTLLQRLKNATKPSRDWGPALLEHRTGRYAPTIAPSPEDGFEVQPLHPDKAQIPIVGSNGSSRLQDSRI
Format: cell-based
Procedure: Glycine Uptake Inhibition Experiment
A glycine uptake experiment was conducted in accordance with the method published in Neuron, 8, 927-935, 1992. In the experiment, T98G cells (glioma cells) expressing human type 1 glycine transporter (GlyT1) were used. The T98G cells were seeded in a 96-well plate at 2.0×10^4 cells/well and cultured overnight in a CO2 incubator. The test substance was dissolved in a 100% DMSO solution and then dissolved in a 10 mM HEPES buffer solution (pH 7.4) containing 150 mM sodium chloride, 1 mM calcium chloride, 5 mM potassium chloride, 1 mM magnesium chloride, 10 mM glucose and 0.2% bovine serum albumin. After removing the cell culture medium, the test substance was subjected to a 10-min pretreatment. Subsequently, the test substance and [^3H] glycine (final concentration: 250 nM) were added to the cells and reaction was performed at room temperature for 15 minutes. After the end of the reaction, the extracellular fluid was aspirated with a manifold to remove excess labeled glycine present outside the cells, and then the cells were lysed with a 0.5 M aqueous sodium hydroxide solution. The glycine content in the cells was determined by measuring the radioactivity in the cell lysate with a liquid scintillation counter. Glycine uptake in the presence of 10 μM ALX5407 was defined as non-specific uptake, and the value calculated by subtracting the amount of the non-specific uptake from the total uptake in the absence of 10 μM ALX5407 was defined as specific uptake. In addition, glycine uptake inhibitory activity (IC50 value) was calculated from an inhibition curve at the concentrations of each test substance ranging from 10^−9 to 10^−5 M. It should be noted that ALX5407 is an HCl salt of N-[(3R)-3-([1,1′-biphenyl]-4-yloxy)-3-(4-fluorophenyl)propyl]-N-methylglycine.
Work on `C[C@H](O)c1cccc2c1C(F)(F)C(=O)N2Cc1cccc(C#N)n1` [Compound 177, 6-({3,3-difluoro-4-[(1S)-1-hydroxyethyl]-2-oxo-2,3-dihydro-1H-indol-1-yl}methyl)pyridine-2-carbonitrile] yielded an IC50 of 0.024 µM.
Work on `CC(O)c1c(F)ccc2c1C(F)(F)C(=O)N2Cc1cncc(Cl)c1` (single isomer, unassigned) [Compound 183, 1-[(5-chloropyridin-3-yl)methyl]-3,3,5-trifluoro-4-(1-hydroxyethyl)-1,3-dihydro-2H-indol-2-one] yielded an IC50 of 0.0067 µM.
Compound `C[C@H](O)c1cccc2c1C(F)(F)C(=O)N2Cc1ccc(-n2nccn2)nc1` [Compound 196, 3,3-difluoro-4-[(1S)-1-hydroxyethyl]-1-{[6-(2H-1,2,3-triazol-2-yl)pyridin-3-yl]methyl)-1,3-dihydro-2H-indol-2-one] has an IC50 of 4.2 µM.
In the case of `C[C@H](O)c1cccc2c1C(F)(F)C(=O)N2Cc1ccc(Cl)c(Cl)n1` [Compound 244, 1-[(5,6-dichloropyridin-2-yl)methyl]-3,3-difluoro-4-[(1S)-1-hydroxyethyl]-1,3-dihydro-2H-indol-2-one], the IC50 is reported as 0.0097 µM.
`C[C@H](O)c1cccc2c1C(F)(F)C(=O)N2Cc1cnc(Cl)c(C#N)c1` [Compound 251, 2-chloro-5-({3,3-difluoro-4-[(1S)-1-hydroxyethyl]-2-oxo-2,3-dihydro-1H-indol-1-yl)methyl)pyridine-3-carbonitrile] gave an IC50 of 0.02 µM.
For `COc1cc(CN2C(=O)C(F)(F)c3c([C@@H](O)C(F)(F)F)cccc32)ccn1` [Compound 166, 3,3-difluoro-1-[(2-methoxypyridin-4-yl)methyl]-4-[(1R)-2,2,2-trifluoro-1-hydroxyethyl]-1,3-dihydro-2H-indol-2-one], the IC50 was 0.026 µM.
With `C[C@H](O)c1cccc2c1C(F)(F)C(=O)N2Cc1ncccc1F` [Compound 208, 3,3-difluoro-1-[(3-fluoropyridin-2-yl)methyl]-4-[(1S)-1-hydroxyethyl]-1,3-dihydro-2H-indol-2-one] the IC50 was 0.15 µM.
For `N#Cc1cc(CN2C(=O)C(F)(F)c3c(C(O)C(F)F)cccc32)c(Cl)cn1` (single isomer, unassigned) [Compound 220], the IC50 was 0.17 µM.
`N#Cc1cc(Cl)cnc1CN1C(=O)C(F)(F)c2c(C(O)C(F)F)cccc21` (single isomer, unassigned) [Compound 276, 5-chloro-2-{[4-(2,2-difluoro-1-hydroxyethyl)-3,3-difluoro-2-oxo-2,3-dihydro-1H-indol-1-yl]methyl}pyridine-3-carbonitrile] was tested, and the IC50 was 0.2 µM.
`C[C@H](O)c1cccc2c1C(F)(F)C(=O)N2Cc1cc(OC(F)F)ccn1` [Compound 245, 1-{[4-(difluoromethoxy)pyridin-2-yl]methyl}-3,3-difluoro-4-[(1S)-1-hydroxyethyl]-1,3-dihydro-2H-indol-2-one] was tested, and the IC50 was 0.11 µM.
In the case of `C[C@H](O)c1cccc2c1C(F)(F)C(=O)N2Cc1ncc(F)cc1C#N` [Compound 233, 2-({3,3-difluoro-4-[(1S)-1-hydroxyethyl)-2-oxo-2,3-dihydro-1H-indol-1-yl}methyl)-5-fluoropyridine-3-carbonitrile], the IC50 is reported as 0.18 µM.
Compound `O=C1N(Cc2cc(C(F)(F)F)ccn2)c2cccc(C(O)C(F)F)c2C1(F)F` (single isomer, unassigned) [Compound 159, 4-(2,2-difluoro-1-hydroxyethyl)-3,3-difluoro-1-{[4-(trifluoromethyl)pyridin-2-yl]methyl}-1,3-dihydro-2H-indol-2-one] has an IC50 of 0.053 µM.
Compound `COc1cc(CN2C(=O)C(F)(F)c3c(C(O)C(F)F)cccc32)ccn1` (single isomer, unassigned) [Compound 165, 4-(2,2-difluoro-1-hydroxyethyl)-3,3-difluoro-1-[(2-methoxypyridin-4-yl)methyl]-1,3-dihydro-2H-indol-2-one] has an IC50 of 0.048 µM.
Compound `C[C@H](O)c1cccc2c1C(F)(F)C(=O)N2Cc1cncc(OC(F)F)c1` [Compound 189, 1-{[5-(difluoromethoxy)pyridin-3-yl]methyl}-3,3-difluoro-4[(1S)-1-hydroxyethyl)-1,3-dihydro-2H-indol-2-one] has an IC50 of 0.079 µM.

Same assay, conditions: glycine uptake inhibition
For `O=C1N(Cc2cncc(Cl)c2)c2ccc(F)c(C(O)C(F)F)c2C1(F)F` (single isomer, unassigned) [Compound 135, 1-[(5-chloropyridin-3-yl)methyl]-4-(2,2-difluoro-1-hydroxyethyl)-3,3,5-trifluoro-1,3-dihydro-2H-indol-2-one], the IC50 was 0.057 µM.
In the case of `CC(O)c1cccc2c1C(F)(F)C(=O)N2Cc1cncc(Cl)c1` (centres unmarked) [Compound 3, 1-[(5-chloropyridin-3-yl)methyl]-3,3-difluoro-4-(1-hydroxyethyl)-1,3-dihydro-2H-indol-2-one], the IC50 is reported as 0.032 µM.
`O=C1N(Cc2cccc(Cl)n2)c2cccc(C(O)C(F)F)c2C1(F)F` (centres unmarked) [Compound 10, 1-[(6-chloropyridin-2-yl)methyl]-4-(2,2-difluoro-1-hydroxyethyl)-3,3-difluoro-1,3-dihydro-2H-indol-2-one] gave an IC50 of 0.027 µM.
`O=C1N(Cc2ccnc(Cl)c2)c2cccc([C@H](O)C(F)(F)F)c2C1(F)F` [Compound 31, 1-[(2-chloropyridin-4-yl)methyl]-3,3-difluoro-4-[(1S)-2,2,2-trifluoro-1-hydroxyethyl]-1,3-dihydro-2H-indol-2-one] gave an IC50 of 0.35 µM.
Work on `O=C1N(Cc2cnc3ccccc3c2)c2cccc([C@@H](O)C(F)(F)F)c2C1(F)F` [Compound 133, 3,3-difluoro-1-(quinolin-3-ylmethyl)-4-[(1R)-2,2,2-trifluoro-1-hydroxyethyl]-1,3-dihydro-2H-indol-2-one] yielded an IC50 of 0.062 µM.
`C[C@H](O)c1cccc2c1C(F)(F)C(=O)N2Cc1cccc(C#N)c1` [Compound 57, 3-({3,3-difluoro-4-[(1S)-1-hydroxyethyl]-2-oxo-2,3-dihydro-1H-indol-1-yl}methyl) benzonitrile] gave an IC50 of 0.015 µM.
`C[C@H](O)c1cccc2c1C(F)(F)C(=O)N2Cc1c2ccccc2nn1C` [Compound 93] was tested, and the IC50 was 0.054 µM.
With `O=C1N(Cc2cncc(-n3nccn3)c2)c2cccc(C(O)C(F)F)c2C1(F)F` (single isomer, unassigned) [Compound 148, 4-(2,2-difluoro-1-hydroxyethyl)-3,3-difluoro-1-{[5-(2H-1,2,3-triazol-2-yl)pyridin-3-yl]methyl}-1,3-dihydro-2H-indol-2-one] the IC50 was 0.039 µM.
`N#Cc1cc(CN2C(=O)C(F)(F)c3c(C(O)C(F)(F)F)cccc32)ccn1` (centres unmarked) [Compound 14, 4-{[3,3-difluoro-2-oxo-4-(2,2,2-trifluoro-1-hydroxyethyl)-2,3-dihydro-1H-indol-1-yl]methyl}pyridine-2-carbonitrile] showed an IC50 of 0.12 µM.
`C[C@H](O)c1cccc2c1C(F)(F)C(=O)N2Cc1cccc(-n2nccn2)n1` [Compound 44, 3,3-difluoro-4-[(1S)-1-hydroxyethyl]-1-{[6-(2H-1,2,3-triazol-2-yl)pyridin-2-yl]methyl}-1,3-dihydro-2H-indol-2-one] gave an IC50 of 0.068 µM.
For `C[C@H](O)c1cccc2c1C(F)(F)C(=O)N2Cc1nc2ccccc2o1` [Compound 81, 1-(1,3-benzoxazol-2-ylmethyl)-3,3-difluoro-4-[(1S)-1-hydroxyethyl]-1,3-dihydro-2H-indol-2-one], the IC50 was 0.03 µM.

Same assay, conditions: table section whose head prints (μm)
Work on `N#Cc1cc(CN2C(=O)C(F)(F)c3c(C(O)C(F)F)cccc32)cnc1F` (single isomer, unassigned) [Compound 272, 5-{[4-(2,2-difluoro-1-hydroxyethyl)-3,3-difluoro-2-oxo-2,3-dihydro-1H-indol-1-yl]methyl}-2-fluoropyridine-3-carbonitrile] yielded an IC50 of 0.027 µM.
